# Experimental data as given in BindingDB's records for doi:10.1021/jm8011905 (National Taiwan University, 2009).
# Biological target: Genome polyprotein (Hepatitis C virus genotype 1b (isolate Taiwan), UniProt P29846)
# Assay: Fluorescence Resonant Energy Transfer (FRET) Helicase Assay
# Conditions: pH 7; 22 °C
# Procedure: The enzyme was assayed the DNA helicase activity by using DNA substrate (annealed BHQ1-labeled release strand and FITC-labeled template strand) in the presence of test compound. The substrate was monitored by the fluorescence quenching of FITC. The assay mixture was added to a 384-well microplate and monitored continuously at an excitation of 485 nm and an emission of 518 nm using a Fluoroskan Ascent microplate fluorescence reader (LabSystems, VA). The original data were normalized by the formula of relative helicase activity (%). When the inhibition of helicase activity was more than 50% at a concentration of 100 uM, the IC50 values were determined by curve fitting using SigmaPlot2000 of logistic with three parameters.
# Genome polyprotein, sequence (P29846 1027-1657 limits assumed): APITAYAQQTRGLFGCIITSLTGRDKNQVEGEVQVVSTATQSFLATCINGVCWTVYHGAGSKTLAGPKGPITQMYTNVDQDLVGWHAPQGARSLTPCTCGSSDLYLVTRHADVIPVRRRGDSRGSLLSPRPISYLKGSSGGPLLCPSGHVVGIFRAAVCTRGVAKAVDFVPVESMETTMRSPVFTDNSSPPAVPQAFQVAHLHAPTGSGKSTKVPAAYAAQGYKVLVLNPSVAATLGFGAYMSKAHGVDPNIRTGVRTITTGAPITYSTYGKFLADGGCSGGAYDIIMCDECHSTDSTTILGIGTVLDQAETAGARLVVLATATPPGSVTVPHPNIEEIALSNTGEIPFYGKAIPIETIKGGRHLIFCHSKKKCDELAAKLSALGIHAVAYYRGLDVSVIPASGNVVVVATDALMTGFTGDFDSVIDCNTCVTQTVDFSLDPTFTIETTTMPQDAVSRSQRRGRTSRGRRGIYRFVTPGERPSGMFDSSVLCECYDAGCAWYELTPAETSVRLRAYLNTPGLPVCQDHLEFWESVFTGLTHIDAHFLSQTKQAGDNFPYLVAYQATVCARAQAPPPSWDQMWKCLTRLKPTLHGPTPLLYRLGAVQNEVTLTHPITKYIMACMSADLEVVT
smiles,measurement,value
"O=S(=O)(O)c1ccc(Nc2ccc([C+](c3ccc(Nc4cccc(S(=O)(=O)O)c4)cc3)c3ccc(Nc4cccc(S(=O)(=O)O)c4)cc3)cc2)cc1 [BHT, 1]",IC50,40 µM
